Drawing on US10793580B2, “Substituted pyrazoloazepin-8-ones and their use as phosphodiesterase inhibitors” (LEO Pharma A/S, priority 2016, dated 2020), this text covers IC50 for 29 molecules.

A value given as a limit tells only on which side of the number the result lay.

Sequence of human PDE4D catalytic domain (Q08499 380-740): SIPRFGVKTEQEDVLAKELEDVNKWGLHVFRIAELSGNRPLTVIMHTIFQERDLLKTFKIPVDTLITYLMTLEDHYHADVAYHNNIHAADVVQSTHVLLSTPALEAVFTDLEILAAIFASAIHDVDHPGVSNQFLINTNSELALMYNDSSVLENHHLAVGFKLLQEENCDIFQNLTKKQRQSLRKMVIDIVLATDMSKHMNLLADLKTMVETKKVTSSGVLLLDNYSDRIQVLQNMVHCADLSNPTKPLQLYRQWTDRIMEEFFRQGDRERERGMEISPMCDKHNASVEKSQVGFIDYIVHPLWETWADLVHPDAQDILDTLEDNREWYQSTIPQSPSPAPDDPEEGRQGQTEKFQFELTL

The assay has as its target human PDE4D catalytic domain (Homo sapiens (Human), UniProt Q08499). As to the kind of experiment: PDE4 Assay (TR-FRET, FAM-cAMP cleavage). To be noted: human PDE4D catalytic domain (UniProt Q08499 [S380-L740]); 50% inhibition of substrate cleavage; read-out: PDE4 IC50 range. Format: biochemical. The procedure:
The human PDE4D catalytic domain (UniProt no. Q08499 [S380-L740]) was incubated with a mixture of non-labelled cAMP (cyclic adenosine monophosphate) and fluorescein amidite (FAM) conjugated cAMP and titrated test or reference Compound. Following brief incubation the enzymatic reaction was stopped by addition of binding buffer containing nanoparticles with immobilized trivalent metal ions capable of binding 1) AMP phospho groups and 2) terbium (Tb) donor fluorophores. Subsequent excitation of the Tb donor triggers time-resolved FRET to adjacent FAM acceptor molecules resulting in light emission. In the presence of a PDE4 inhibitor, AMP generation was reduced resulting in a lower fluorescence signal. The cAMP phosphodiester is not bound by the detection system.
The results were calculated as the molar concentrations resulting in 50% inhibition of the substrate cleavage compared to controls samples, and are expressed as a range of IC50 (nM).
A general note: Time-resolved FRET reads energy transfer from a long-lived donor to a nearby acceptor.
The IC50 is the concentration that gives 50% inhibition. For `CCn1nc(CCCOC(=O)c2cc(C#N)ccc2F)c2c1C(=O)NCC1(CCOCC1)C2` [Example 31, 3-(1-ethyl-8-oxo-spiro[6,7-dihydro-4H-pyrazolo[3,4-c]azepine-5,4′-tetrahydropyran]-3-yl)propyl 5-cyano-2-fluoro-benzoate], the IC50 is below 100 nM.

Take `CCn1nc(CCCOC(=O)c2ccc(C#N)c(F)c2)c2c1C(=O)NCC1(CCOCC1)C2` [Example 32, 3-(1-ethyl-8-oxo-spiro[6,7-dihydro-4H-pyrazolo[3,4-c]azepine-5,4′-tetrahydropyran]-3-yl)propyl 4-cyano-3-fluoro-benzoate]: the half-maximal inhibitory concentration (IC50) was below 100 nM.

`CCn1nc(CCCOC(=O)c2ccc(OC)c(C)c2)c2c1C(=O)NCC1(CCOCC1)C2` [Example 33, 3-(1-ethyl-8-oxo-spiro[6,7-dihydro-4H-pyrazolo[3,4-c]azepine-5,4′-tetrahydropyran]-3-yl)propyl 4-methoxy-3-methyl-benzoate]: the half-inhibitory concentration (IC50) was below 100 nM.

Turning to `CCn1nc(CCCOC(=O)c2ccc(C)cc2OC)c2c1C(=O)NCC1(CCOCC1)C2` [Example 34, 3-(1-ethyl-8-oxo-spiro[6,7-dihydro-4H-pyrazolo[3,4-c]azepine-5,4′-tetrahydropyran]-3-yl)propyl 2-methoxy-4-methyl-benzoate], the IC50 was below 100 nM.

As for `CCn1nc(CCCOC(=O)c2ccc(OC)c(F)c2)c2c1C(=O)NCC1(CCOCC1)C2` [Example 35, 3-(1-ethyl-8-oxo-spiro[6,7-dihydro-4H-pyrazolo[3,4-c]azepine-5,4′-tetrahydropyran]-3-yl)propyl 3-fluoro-4-methoxy-benzoate], the IC50 is below 100 nM.

As to `CCn1nc(CCCOC(=O)c2ccc(F)c(OC)c2)c2c1C(=O)NCC1(CCOCC1)C2` [Example 36, 3-(1-ethyl-8-oxo-spiro[6,7-dihydro-4H-pyrazolo[3,4-c]azepine-5,4′-tetrahydropyran]-3-yl)propyl 4-fluoro-3-methoxy-benzoate], the IC50 is below 100 nM.

Take `CCn1nc(CCCOC(=O)c2cc(OC)ccc2F)c2c1C(=O)NCC1(CCOCC1)C2` [Example 37, 3-(1-ethyl-8-oxo-spiro[6,7-dihydro-4H-pyrazolo[3,4-c]azepine-5,4′-tetrahydropyran]-3-yl)propyl 2-fluoro-5-methoxy-benzoate]: the IC50 was below 100 nM.

Regarding `CCn1nc(CCCOC(=O)c2ccc(OC)cc2F)c2c1C(=O)NCC1(CCOCC1)C2` [Example 38, 3-(1-ethyl-8-oxo-spiro[6,7-dihydro-4H-pyrazolo[3,4-c]azepine-5,4′-tetrahydropyran]-3-yl)propyl 2-fluoro-4-methoxy-benzoate], the half-maximal inhibitory concentration (IC50) was below 100 nM.

Turning to `CCn1nc(CCCOC(=O)c2cccc(OC)c2F)c2c1C(=O)NCC1(CCOCC1)C2` [Example 39, 3-(1-ethyl-8-oxo-spiro[6,7-dihydro-4H-pyrazolo[3,4-c]azepine-5,4′-tetrahydropyran]-3-yl)propyl 2-fluoro-3-methoxy-benzoate], the half-maximal inhibitory concentration (IC50) was below 100 nM.

As to `CCn1nc(CCCOC(=O)c2ccc(F)cc2OC)c2c1C(=O)NCC1(CCOCC1)C2` [Example 40, 3-(1-ethyl-8-oxo-spiro[6,7-dihydro-4H-pyrazolo[3,4-c]azepine-5,4′-tetrahydropyran]-3-yl)propyl 4-fluoro-2-methoxy-benzoate], the IC50 was below 100 nM.

Regarding `CCn1nc(CCCOC(=O)c2c(F)cccc2OC)c2c1C(=O)NCC1(CCOCC1)C2` [Example 41, 3-(1-ethyl-8-oxo-spiro[6,7-dihydro-4H-pyrazolo[3,4-c]azepine-5,4′-tetrahydropyran]-3-yl)propyl 2-fluoro-6-methoxy-benzoate], the IC50 is below 100 nM.

With `CCn1nc(CCCOC(=O)c2ccc(C)cc2Cl)c2c1C(=O)NCC1(CCOCC1)C2` [Example 42, 3-(1-ethyl-8-oxo-spiro[6,7-dihydro-4H-pyrazolo[3,4-c]azepine-5,4′-tetrahydropyran]-3-yl)propyl 2-chloro-4-methyl-benzoate], the IC50 was below 100 nM.

On to `CCn1nc(CCCOC(=O)c2ccc(Cl)cc2C)c2c1C(=O)NCC1(CCOCC1)C2` [Example 43, 3-(1-ethyl-8-oxo-spiro[6,7-dihydro-4H-pyrazolo[3,4-c]azepine-5,4′-tetrahydropyran]-3-yl)propyl 4-chloro-2-methyl-benzoate], for which the concentration for half-maximal inhibition (IC50) was below 100 nM.

`CCn1nc(CCCOC(=O)c2cc(Cl)ccc2C)c2c1C(=O)NCC1(CCOCC1)C2` [Example 44, 3-(1-ethyl-8-oxo-spiro[6,7-dihydro-4H-pyrazolo[3,4-c]azepine-5,4′-tetrahydropyran]-3-yl)propyl 5-chloro-2-methyl-benzoate]: the IC50 was below 100 nM.

With `CCn1nc(CCCOC(=O)c2ccc(C(F)F)cc2)c2c1C(=O)NCC1(CCOCC1)C2` [Example 45, 3-(1-ethyl-8-oxo-spiro[6,7-dihydro-4H-pyrazolo[3,4-c]azepine-5,4′-tetrahydropyran]-3-yl)propyl 4-(difluoromethyl)benzoate], the half-maximal inhibitory concentration (IC50) was below 100 nM.

In the case of `CCn1nc(CCCOC(=O)c2cc(F)ccc2Cl)c2c1C(=O)NCC1(CCOCC1)C2` [Example 46, 3-(1-ethyl-8-oxo-spiro[6,7-dihydro-4H-pyrazolo[3,4-c]azepine-5,4′-tetrahydropyran]-3-yl)propyl 2-chloro-5-fluoro-benzoate], the concentration for half-maximal inhibition (IC50) is below 100 nM.

With `CCn1nc(CCCOC(=O)c2cc(F)cc(Cl)c2)c2c1C(=O)NCC1(CCOCC1)C2` [Example 47, 3-(1-ethyl-8-oxo-spiro[6,7-dihydro-4H-pyrazolo[3,4-c]azepine-5,4′-tetrahydropyran]-3-yl)propyl 3-chloro-5-fluoro-benzoate], the IC50 is below 100 nM.

In the case of `CCn1nc(CCCOC(=O)c2ccc(Cl)c(F)c2)c2c1C(=O)NCC1(CCOCC1)C2` [Example 48, 3-(1-ethyl-8-oxo-spiro[6,7-dihydro-4H-pyrazolo[3,4-c]azepine-5,4′-tetrahydropyran]-3-yl)propyl 4-chloro-3-fluoro-benzoate], the IC50 was below 100 nM.

On to `CCn1nc(CCCOC(=O)c2cccc(F)c2Cl)c2c1C(=O)NCC1(CCOCC1)C2` [Example 49, 3-(1-ethyl-8-oxo-spiro[6,7-dihydro-4H-pyrazolo[3,4-c]azepine-5,4′-tetrahydropyran]-3-yl)propyl 2-chloro-3-fluoro-benzoate], for which the half-maximal inhibitory concentration (IC50) is below 100 nM.

Turning to `CCn1nc(CCCOC(=O)c2cccc(Cl)c2F)c2c1C(=O)NCC1(CCOCC1)C2` [Example 50, 3-(1-ethyl-8-oxo-spiro[6,7-dihydro-4H-pyrazolo[3,4-c]azepine-5,4′-tetrahydropyran]-3-yl)propyl 3-chloro-2-fluoro-benzoate], the concentration for half-maximal inhibition (IC50) was below 100 nM.

With `CCn1nc(CCCOC(=O)c2cc(Cl)ccc2F)c2c1C(=O)NCC1(CCOCC1)C2` [Example 51, 3-(1-ethyl-8-oxo-spiro[6,7-dihydro-4H-pyrazolo[3,4-c]azepine-5,4′-tetrahydropyran]-3-yl)propyl 5-chloro-2-fluoro-benzoate], the IC50 is below 100 nM.

Regarding `CCn1nc(CCCOC(=O)c2c(F)cccc2Cl)c2c1C(=O)NCC1(CCOCC1)C2` [Example 52, 3-(1-ethyl-8-oxo-spiro[6,7-dihydro-4H-pyrazolo[3,4-c]azepine-5,4′-tetrahydropyran]-3-yl)propyl 2-chloro-6-fluoro-benzoate], the half-maximal inhibitory concentration (IC50) was below 100 nM.

On to `CCn1nc(CCCOC(=O)c2ccc(Cl)cc2F)c2c1C(=O)NCC1(CCOCC1)C2` [Example 53, 3-(1-ethyl-8-oxo-spiro[6,7-dihydro-4H-pyrazolo[3,4-c]azepine-5,4′-tetrahydropyran]-3-yl)propyl 4-chloro-2-fluoro-benzoate], for which the 50% inhibitory concentration (IC50) was below 100 nM.

Regarding `CCn1nc(CCCOC(=O)c2ccc(F)c(Cl)c2)c2c1C(=O)NCC1(CCOCC1)C2` [Example 54, 3-(1-ethyl-8-oxo-spiro[6,7-dihydro-4H-pyrazolo[3,4-c]azepine-5,4′-tetrahydropyran]-3-yl)propyl 3-chloro-4-fluoro-benzoate], the IC50 is below 100 nM.

On to `CCn1nc(CCCOC(=O)c2ccc(Cl)c(OC)c2)c2c1C(=O)NCC1(CCOCC1)C2` [Example 55, 3-(1-ethyl-8-oxo-spiro[6,7-dihydro-4H-pyrazolo[3,4-c]azepine-5,4′-tetrahydropyran]-3-yl)propyl 4-chloro-3-methoxy-benzoate], for which the 50% inhibitory concentration (IC50) is below 100 nM.

For `CCn1nc(CCCOC(=O)c2cc(OC)ccc2Cl)c2c1C(=O)NCC1(CCOCC1)C2` [Example 56, 3-(1-ethyl-8-oxo-spiro[6,7-dihydro-4H-pyrazolo[3,4-c]azepine-5,4′-tetrahydropyran]-3-yl)propyl 2-chloro-5-methoxy-benzoate], the IC50 was below 100 nM.

As for `CCn1nc(CCCOC(=O)c2cccc(OC)c2Cl)c2c1C(=O)NCC1(CCOCC1)C2` [Example 57, 3-(1-ethyl-8-oxo-spiro[6,7-dihydro-4H-pyrazolo[3,4-c]azepine-5,4′-tetrahydropyran]-3-yl)propyl 2-chloro-3-methoxy-benzoate], the IC50 was below 100 nM.

Turning to `CCn1nc(CCCOC(=O)c2ccc(OC)c(Cl)c2)c2c1C(=O)NCC1(CCOCC1)C2` [Example 58, 3-(1-ethyl-8-oxo-spiro[6,7-dihydro-4H-pyrazolo[3,4-c]azepine-5,4′-tetrahydropyran]-3-yl)propyl 3-chloro-4-methoxy-benzoate], the IC50 was below 100 nM.

Take `CCn1nc(CCCOC(=O)c2cccc(Cl)c2OC)c2c1C(=O)NCC1(CCOCC1)C2` [Example 59, 3-(1-ethyl-8-oxo-spiro[6,7-dihydro-4H-pyrazolo[3,4-c]azepine-5,4′-tetrahydropyran]-3-yl)propyl 3-chloro-2-methoxy-benzoate]: the IC50 is below 100 nM.
